Key:
[1] = molecular target: T1, recombinant human muscarinic receptor m2 (Homo sapiens, UniProt P08172); test: Radioligand binding studies, [3H]N-methyl scopolamine, m2; conditions: CHO cell membranes, [3H]N-methyl scopolamine 0.4 nM; pIC50 converted to pKi by Cheng-Prusoff
T1 construct: expressed in transfected cells; host or cells: Chinese hamster ovary (CHO) cells, membrane preparation
T1 sequence (P08172 1-466): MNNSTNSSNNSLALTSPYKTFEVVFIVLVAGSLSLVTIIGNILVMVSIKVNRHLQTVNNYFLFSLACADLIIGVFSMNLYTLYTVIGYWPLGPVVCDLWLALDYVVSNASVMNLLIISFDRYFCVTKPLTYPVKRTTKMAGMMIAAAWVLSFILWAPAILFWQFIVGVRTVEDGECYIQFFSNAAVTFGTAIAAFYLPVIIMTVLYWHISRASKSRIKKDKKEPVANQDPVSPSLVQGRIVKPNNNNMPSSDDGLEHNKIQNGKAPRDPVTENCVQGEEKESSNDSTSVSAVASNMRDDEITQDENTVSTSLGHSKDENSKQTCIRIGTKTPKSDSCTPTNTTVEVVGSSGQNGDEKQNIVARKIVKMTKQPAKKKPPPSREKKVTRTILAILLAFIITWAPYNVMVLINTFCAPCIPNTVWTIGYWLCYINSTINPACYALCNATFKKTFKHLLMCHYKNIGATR
Experimental: (§1) The compounds of this invention are muscarinic receptor antagonists. The muscarinic receptor affinity of test compounds can be determined by an in vitro receptor binding assay which utilizes a cell membrane preparation from the Chinese hamster ovary cells expressing the recombinant human muscarinic receptors (M1-M5), and is described in more detail in Example 12.
(§2) The inhibitory activity of compounds of this invention in vitro was determined using a modification of the method described in Hegde, S. S. et al. 1997 Br. J. Pharmacol., 120, 1409-1418.
(§3) Cell membranes from Chinese hamster ovary cells expressing the recombinant human muscarinic receptors (m1-m5) were employed. The assays were conducted with the radioligand [^3H]N-methyl scopolamine (0.4 nM, specific activity 84 Ci·mmol^−1) in a final volume of 0.25 mL Tris-Krebs buffer. Non-specific binding was defined with 1 μM atropine. Assays were performed using scintillation proximity assay technology. Competition-displacement curves were generated using 10 concentrations of test compounds and were analyzed by iterative curve fitting to a four parameter logistic equation. pIC50 values (-log of the IC50) were converted to pKi values using the Cheng-Prusoff equation.

[2] = molecular target: T2, recombinant human muscarinic receptor m3 (Homo sapiens, UniProt P20309); test: Radioligand binding studies, [3H]N-methyl scopolamine, m3; conditions: CHO cell membranes, [3H]N-methyl scopolamine 0.4 nM; pIC50 converted to pKi by Cheng-Prusoff
T2 construct: expressed in transfected cells; host or cells: Chinese hamster ovary (CHO) cells, membrane preparation
Experimental: as §1, §2, §3

T2 sequence (P20309 whole entry): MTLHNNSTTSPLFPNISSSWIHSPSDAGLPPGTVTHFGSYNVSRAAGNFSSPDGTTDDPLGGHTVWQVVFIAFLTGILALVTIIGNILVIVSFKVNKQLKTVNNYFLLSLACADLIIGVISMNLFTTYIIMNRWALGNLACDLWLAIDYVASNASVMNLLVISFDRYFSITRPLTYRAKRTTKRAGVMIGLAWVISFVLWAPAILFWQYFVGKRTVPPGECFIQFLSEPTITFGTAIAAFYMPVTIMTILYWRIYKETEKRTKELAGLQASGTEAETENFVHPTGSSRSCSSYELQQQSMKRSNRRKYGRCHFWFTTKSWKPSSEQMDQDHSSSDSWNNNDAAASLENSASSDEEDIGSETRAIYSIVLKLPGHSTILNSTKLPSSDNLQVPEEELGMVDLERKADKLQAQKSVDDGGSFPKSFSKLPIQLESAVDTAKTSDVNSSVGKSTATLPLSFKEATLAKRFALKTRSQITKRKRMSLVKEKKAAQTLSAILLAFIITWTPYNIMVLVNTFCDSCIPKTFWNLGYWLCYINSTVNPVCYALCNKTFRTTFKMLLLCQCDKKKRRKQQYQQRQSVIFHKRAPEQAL

Compound	Ki [1] [nM]	Ki [2] [nM]
CCCN(C1CCN(C(=O)C2CCNCC2)CC1)[C@@H]1CCc2ccc(OC)cc2C1 [Cpd 39, {4-[((R)-7-methoxy-1,2,3,4-tetrahydro-naphthalen-2-yl)-propyl-amino]-piperidin-1-yl}-piperidin-4-yl-methanone]	2.19	0.955
CCCN(C1CCN(C(=O)N2CCNCC2)CC1)C1CCc2ccc(OC)cc2C1 (centres unmarked) [Cpd 16, {4-[(7-methoxy-1,2,3,4-tetrahydro-naphthalen-2-yl)-propyl-amino]-piperidin-1-yl}-piperazin-1-yl-methanone]	0.977	1.58
CCCN(C1CCN(C(=O)C2CCNCC2)CC1)C1CCc2ccc(Br)cc2C1 (centres unmarked) [Cpd 35, {4-[(7-bromo-1,2,3,4-tetrahydro-naphthalen-2-yl)-propyl-amino]-piperidin-1-yl}-piperidin-4-yl-methanone]	1.82	0.891
CCCN(C1CCN(C(=O)N2CCOCC2)CC1)C1CCc2ccc(OC)cc2C1 (centres unmarked) [Cpd 1, {4-[(7-methoxy-1,2,3,4-tetrahydro-naphthalen-2-yl)-propyl-amino]-piperidin-1-yl}-morpholin-4-yl-methanone]	2.69	1.48
CCCN(C1CCN(C(=O)C2CCNCC2)CC1)C1CCc2cc(OC)c(OC)cc2C1 (centres unmarked) [Cpd 28, {4-[(6,7-dimethoxy-1,2,3,4-tetrahydro-naphthalen-2-yl)-propyl-amino]-piperidin-1-yl}-piperidin-4-yl-methanone]	5.01	11.5

Continued, values first:

Ki [1] [nM]	Ki [2] [nM]	Compound
4.27	6.76	CCCN(C1CCN(C(C)=O)CC1)C1CCc2ccc(OC)cc2C1 (centres unmarked) [Cpd 15, 1-{4-[(7-methoxy-1,2,3,4-tetrahydro-naphthalen-2-yl)-propyl-amino]-piperidin-1-yl}ethanone]
41.7	49	CCCN(C1CCN(C(=O)c2ccccc2C)CC1)C1CCc2ccc(OC)cc2C1 (centres unmarked) [Cpd 3, {4-[(7-methoxy-1,2,3,4-tetrahydro-naphthalen-2-yl)-propyl-amino]-piperidin-1-yl}o-tolyl-methanone]
26.3	51.3	CCCN(C1CCN(C(=O)c2ccco2)CC1)C1CCc2ccc(OC)cc2C1 (centres unmarked) [Cpd 4, furan-2-yl-{4-[(7-methoxy-1,2,3,4-tetrahydro-naphthalen-2-yl)-propyl-amino]-piperidin-1-yl}-methanone]
0.575	2.75	CCCN(C1CCN(C(=O)N2CCN(C)CC2)CC1)C1CCc2ccc(OC)cc2C1 (centres unmarked) [Cpd 23, {4-[(7-methoxy-1,2,3,4-tetrahydro-naphthalen-2-yl)-propyl-amino]-piperidin-1-yl}-(4-methyl-piperazin-1-yl)-methanone]
3.16	5.89	CCCN(C1CCN(C(=O)N(CC)CC)CC1)C1CCc2ccc(OC)cc2C1 (centres unmarked) [Cpd 5, 4-[(7-methoxy-1,2,3,4-tetrahydro-naphthalen-2-yl)-propyl-amino]-piperidine-1-carboxylic acid diethylamide]
